Read-outs that look alike come from different tables or passages of the source.
Tests used:
Format in all cases: in vivo
[1] = system: pigweed (Amaranthus retroflexus); experiment: Test A preemergence; conditions: Amaranthus retroflexus, pre-emergence, 240 h; for pest or weed control at 125 g/ha: 125 g ai/ha; for pest or weed control at 500 g/ha: 500 g ai/ha
corn (Zea mays) = experiment: Test A postemergence; conditions: Zea mays, post-emergence, 240 h, postemergence; for plant injury at 125 g/ha: 125 g ai/ha
Summary of the method: (§1)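 Preemergence soil spray on seeded pots or post-emergence spray on 1–2 leaf plants, in loam–sand blend. Greenhouse ~10 d. Visual rating 0–100 against untreated plants.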

[2] = system: pigweed (Amaranthus retroflexus); experiment: Test A postemergence; conditions: Amaranthus retroflexus, post-emergence, 240 h, postemergence; for pest or weed control at 125 g/ha: 125 g ai/ha
Summary of the method: as §1

[3] = system: ryegrass, Italian (Italian ryegrass, Lolium multiflorum); experiment: Test A postemergence; conditions: Lolium multiflorum, post-emergence, 240 h, postemergence; for pest or weed control at 125 g/ha: 125 g ai/ha
Summary of the method: as §1

[4] = system: wheat (Triticum aestivum); experiment: Test A postemergence; conditions: Triticum aestivum, post-emergence, 240 h, postemergence; for plant injury at 125 g/ha: 125 g ai/ha
Summary of the method: as §1

[5] = system: ragweed (common ragweed, Ambrosia elatior); experiment: Test A postemergence; conditions: Ambrosia artemisiifolia, post-emergence, 240 h, postemergence; for pest or weed control at 125 g/ha: 125 g ai/ha
Summary of the method: as §1

Kochia (Kochia scoparia) = experiment: Test A postemergence; conditions: Bassia scoparia, post-emergence, 240 h, postemergence; for pest or weed control at 125 g/ha: 125 g ai/ha
Summary of the method: as §1

[6] = system: giant foxtail (Setaria faberii); experiment: Test A postemergence; conditions: Setaria faberi, post-emergence, 240 h, postemergence; for pest or weed control at 125 g/ha: 125 g ai/ha
Summary of the method: as §1

[7] = system: Galium (catchweed bedstraw, Galium aparine); experiment: Test A postemergence; conditions: Galium, post-emergence, 240 h, postemergence; for pest or weed control at 125 g/ha: 125 g ai/ha
Summary of the method: as §1

[8] = system: blackgrass (Alopecurus myosuroides); experiment: Test A postemergence; conditions: Alopecurus myosuroides, post-emergence, 240 h, postemergence; for pest or weed control at 125 g/ha: 125 g ai/ha
Summary of the method: as §1

[9] = system: barnyardgrass (Echinochloa crus-galli); experiment: Test A postemergence; conditions: Echinochloa crus-galli, post-emergence, 240 h, postemergence; for pest or weed control at 125 g/ha: 125 g ai/ha
Summary of the method: as §1

[10] = system: sedge, umbrella (small-flower umbrella sedge, Cyperus difformis); experiment: Test B flooded paddy test; conditions: Cyperus difformis, 250 g ai/ha, Flood, read-out: Sedge, Umbrella plant response rating
Summary of the method: (§2)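 Response scored visually against untreated controls, 0 = no effect and 100 = complete control, 13–15 d after treatment in the greenhouse. Compounds added to paddy water held 3 cm above soil surface. Treatment given at 2-leaf stage.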

[11] = system: ducksalad (Heteranthera limosa); experiment: Test B flooded paddy test; conditions: Heteranthera limosa, 250 g ai/ha, Flood, read-out: Ducksalad plant response rating
Summary of the method: as §2

rice (Oryra sativa) = experiment: Test B flooded paddy test; conditions: Oryza sativa, 250 g ai/ha, Flood, read-out: Rice plant response rating
Summary of the method: as §2

[12] = system: barnyardgrass (Echinochloa crus-galli); experiment: Test B flooded paddy test; conditions: Echinochloa crus-galli, 250 g ai/ha, Flood, read-out: Barnyardgrass plant response rating
Summary of the method: as §2

[13] = preemergence, 0 to 100 scale where 0 is no effect and 100 is complete control, read-out: Pigweed plant response rating
[14] = 0 to 100 scale where 0 is no effect and 100 is complete control
[15] = Preemergence, visual injury vs untreated controls after approximately 10 d, read-out: Pigweed plant response rating (0 to 100 scale where 0 is no effect and 100 is complete control)
[16] = visual injury rating after approximately 10 d, read-out: Corn plant response rating (0 to 100 scale, 0 no effect, 100 complete control)
[17] = visual injury rating after approximately 10 d, read-out: Pigweed plant response rating (0 to 100 scale, 0 no effect, 100 complete control)
[18] = visual injury rating after approximately 10 d, read-out: Ryegrass, Italian plant response rating (0 to 100 scale, 0 no effect, 100 complete control)
[19] = visual injury rating after approximately 10 d, read-out: Wheat plant response rating (0 to 100 scale, 0 no effect, 100 complete control)
[20] = visual injury rating after approximately 10 d, read-out: Ragweed plant response rating (0 to 100 scale, 0 no effect, 100 complete control)
[21] = visual injury rating after approximately 10 d, read-out: Kochia plant response rating (0 to 100 scale, 0 no effect, 100 complete control)
[22] = visual injury rating after approximately 10 d, read-out: Foxtail, Giant plant response rating (0 to 100 scale, 0 no effect, 100 complete control)
[23] = visual injury rating after approximately 10 d, read-out: Galium plant response rating (0 to 100 scale, 0 no effect, 100 complete control)
[24] = visual injury rating after approximately 10 d, read-out: Blackgrass plant response rating (0 to 100 scale, 0 no effect, 100 complete control)
[25] = visual injury rating after approximately 10 d, read-out: Barnyardgrass plant response rating (0 to 100 scale, 0 no effect, 100 complete control)
[26] = scale of 0 to 100 where 0 is no effect and 100 is complete control

Compound `O=C1NC[C@H](c2ccc3c(c2)OCO3)[C@H]1C(=O)Nc1cccc(F)c1C(F)(F)F` [Compound 1127] has a pest or weed control at 125 g/ha ([1]; preemergence, 0 to 100 scale where 0 is no effect and 100 is complete control, approx. 10 d, read-out: Pigweed plant response rating) of 0%, a pest or weed control at 500 g/ha [1, 13] of 0% and a plant injury at 125 g/ha (corn (Zea mays); visual injury on 0 to 100 scale (0 no effect, 100 complete control), approx. 10 d, read-out: Corn plant response rating) of 0%. For the same compound, the plant injury at 500 g/ha (corn (Zea mays); 500 g ai/ha, 0 to 100 scale, 0 is no effect, 100 is complete control, read-out: Corn plant response rating) was 0%, the pest or weed control at 125 g/ha ([2]; visual injury on 0 to 100 scale (0 no effect, 100 complete control), approx. 10 d, read-out: Pigweed plant response rating) was 0% and the pest or weed control at 500 g/ha ([2]; 500 g ai/ha, 0 to 100 scale, 0 is no effect, 100 is complete control, read-out: Pigweed plant response rating) was 0%. The pest or weed control at 125 g/ha ([3]; visual injury on 0 to 100 scale (0 no effect, 100 complete control), approx. 10 d, read-out: Ryegrass, Italian plant response rating) was 0%, the pest or weed control at 500 g/ha ([3]; 500 g ai/ha, 0 to 100 scale, 0 is no effect, 100 is complete control, read-out: Ryegrass, Italian plant response rating) was 0% and the plant injury at 125 g/ha ([4]; visual injury on 0 to 100 scale (0 no effect, 100 complete control), approx. 10 d, read-out: Wheat plant response rating) was 0%. The plant injury at 500 g/ha ([4]; 500 g ai/ha, 0 to 100 scale, 0 is no effect, 100 is complete control, read-out: Wheat plant response rating) was 0%, the pest or weed control at 125 g/ha ([5]; visual injury on 0 to 100 scale (0 no effect, 100 complete control), approx. 10 d, read-out: Ragweed plant response rating) was 0% and the pest or weed control at 500 g/ha ([5]; 500 g ai/ha, 0 to 100 scale, 0 is no effect, 100 is complete control, read-out: Ragweed plant response rating) was 0%. It also gave a pest or weed control at 125 g/ha (Kochia (Kochia scoparia); visual injury on 0 to 100 scale (0 no effect, 100 complete control), approx. 10 d, read-out: Kochia plant response rating) of 0%, a pest or weed control at 500 g/ha (Kochia (Kochia scoparia); 500 g ai/ha, 0 to 100 scale, 0 is no effect, 100 is complete control, read-out: Kochia plant response rating) of 0% and a pest or weed control at 125 g/ha ([6]; visual injury on 0 to 100 scale (0 no effect, 100 complete control), approx. 10 d, read-out: Foxtail, Giant plant response rating) of 0%. The pest or weed control at 500 g/ha ([6]; 500 g ai/ha, 0 to 100 scale, 0 is no effect, 100 is complete control, read-out: Foxtail, Giant plant response rating) was 50%, the pest or weed control at 125 g/ha ([7]; visual injury on 0 to 100 scale (0 no effect, 100 complete control), approx. 10 d, read-out: Galium plant response rating) was 0% and the pest or weed control at 500 g/ha ([7]; 500 g ai/ha, 0 to 100 scale, 0 is no effect, 100 is complete control, read-out: Galium plant response rating) was 40%. The pest or weed control at 125 g/ha ([8]; visual injury on 0 to 100 scale (0 no effect, 100 complete control), approx. 10 d, read-out: Blackgrass plant response rating) was 0%, the pest or weed control at 500 g/ha ([8]; 500 g ai/ha, 0 to 100 scale, 0 is no effect, 100 is complete control, read-out: Blackgrass plant response rating) was 20% and the pest or weed control at 125 g/ha ([9]; visual injury on 0 to 100 scale (0 no effect, 100 complete control), approx. 10 d, read-out: Barnyardgrass plant response rating) was 0%. For the same compound, the pest or weed control at 500 g/ha ([9]; 500 g ai/ha, 0 to 100 scale, 0 is no effect, 100 is complete control, read-out: Barnyardgrass plant response rating) was 40%, the pest or weed control at 250 g/ha [10, 14] was 0% and the pest or weed control at 250 g/ha [11, 14] was 100%. It also gave a pest or weed control at 250 g/ha (rice (Oryra sativa); [14]) of 0% and a pest or weed control at 250 g/ha [12, 14] of 0%.
With `CN1C[C@H](c2cc(F)cc(F)c2)[C@@H](C(=O)Nc2ccc(C(F)(F)F)nc2)C1=O` [Compound 870] the pest or weed control at 125 g/ha [1, 13] was 0%, the pest or weed control at 500 g/ha [1, 15] was 0% and the plant injury at 125 g/ha (corn (Zea mays); [16]) was 0%. For the same compound, the pest or weed control at 125 g/ha [2, 17] was 0%, the pest or weed control at 125 g/ha [3, 18] was 0% and the plant injury at 125 g/ha [4, 19] was 0%. The pest or weed control at 125 g/ha [5, 20] was 0%, the pest or weed control at 125 g/ha (Kochia (Kochia scoparia); [21]) was 0% and the pest or weed control at 125 g/ha [6, 22] was 0%. For the same compound, the pest or weed control at 125 g/ha [7, 23] was 0%, the pest or weed control at 125 g/ha [8, 24] was 0% and the pest or weed control at 125 g/ha [9, 25] was 0%. The pest or weed control at 250 g/ha [10, 26] was 0%, the pest or weed control at 250 g/ha [11, 26] was 0% and the pest or weed control at 250 g/ha (rice (Oryra sativa); [26]) was 0%. For the same compound, the pest or weed control at 250 g/ha [12, 26] was 0%.
Compound `COc1c(F)ccc([C@H]2CN(C)C(=O)[C@@H]2C(=O)Nc2ccccc2C(F)(F)F)c1Cl` [Compound 896] has a pest or weed control at 125 g/ha [1, 13] of 20%, a pest or weed control at 500 g/ha [1, 15] of 40% and a plant injury at 125 g/ha (corn (Zea mays); [16]) of 20%. The pest or weed control at 125 g/ha [2, 17] was 20%, the pest or weed control at 125 g/ha [3, 18] was 50% and the plant injury at 125 g/ha [4, 19] was 30%. The pest or weed control at 125 g/ha [5, 20] was 0%, the pest or weed control at 125 g/ha (Kochia (Kochia scoparia); [21]) was 20% and the pest or weed control at 125 g/ha [6, 22] was 90%. For the same compound, the pest or weed control at 125 g/ha [7, 23] was 40%, the pest or weed control at 125 g/ha [8, 24] was 40% and the pest or weed control at 125 g/ha [9, 25] was 90%. The pest or weed control at 250 g/ha [10, 26] was 0%, the pest or weed control at 250 g/ha [11, 26] was 25% and the pest or weed control at 250 g/ha (rice (Oryra sativa); [26]) was 20%. It also gave a pest or weed control at 250 g/ha [12, 26] of 45%.

Source: patent US12077503B2, “Substituted cyclic amides and their use as herbicides” (FMC CORPORATION, priority 2015, dated 2024)
